Test [1] deals with subcutaneous B16.F10 tumors in C57Bl/6 mice or K1735 tumors in C3H mice. Nature of the test: In vivo tumor growth and survival, i.t. RV and i.p. CP alone or in combination. Further details: species or system mouse. The following applies: treated days 1 and 4, tumor model not stated. The method, then:
C57Bl/6 (FIGS. 1A and 1C) and C3H (FIGS. 1B and 1D) mice bearing subcutaneous B16.F10 and K1735 tumors, respectively, were treated on days 1 and 4 with either reovirus alone via intratumoral (i.t.) injection (squares), cisplatin alone via intraperitoneal (i.p.) administration (triangles), or reovirus and cisplatin in combination (circles). Control treated mice (diamonds) received PBS. Tumors were measured on the days indicated and tumor volume expressed as tumor volume relative to volume at commencement of treatment (FIGS. 1A and 1B). Mice were euthanized when tumors exceeded 15 mm in any one dimension. Survival is expressed as Kaplan-Myer plots (FIGS. 1C and 1D).
(§1) For in vivo evaluation, subcutaneous B16.F10 tumors in C57Bl/6 mice or K1735 tumors in C3H mice were treated with intratumoral (i.t.) RV and intraperitoneal (i.p.) CP either alone or in combination. Tumor volume was estimated thrice weekly. […] Tumors were measured on the days indicated and tumor volume expressed as tumor volume relative to volume at commencement of treatment (FIGS. 1A and 1B). […] Survival is expressed as Kaplan-Myer plots (FIGS. 1C and 1D). […] In contrast live virus was detected in only 50% of tumors from combination treated mice but in the liver of 4/6 mice.

Test [2] has as its system neutralizing anti-reovirus antibody (NARA). Nature of the test: Neutralising anti-reovirus antibody (NARA) response in serum. Type of test: in vivo, mouse. Conditions: CP used in combination with RV. The protocol:
FIG. 2 is a graph showing the neutralizing anti-reovirus antibody (NARA) response after no treatment (control) or treatment with reovirus, cisplatin or the combination of reovirus and cisplatin.
For in vivo evaluation, subcutaneous B16.F10 tumors in C57Bl/6 mice or K1735 tumors in C3H mice were treated with intratumoral (i.t.) RV and intraperitoneal (i.p.) CP either alone or in combination. Tumor volume was estimated thrice weekly. Tumors and organs were harvested post-treatment for viral retrieval and histology; serum samples were tested for cytokine production and induction of neutralising anti-reovirus antibody (NARA). […] C57Bl/6 (FIGS. 1A and 1C) and C3H (FIGS. 1B and 1D) mice bearing subcutaneous B16.F10 and K1735 tumors respectively were treated on days 1 and 4 with either reovirus alone i.t. (squares), cisplatin alone i.p. (triangles), or reovirus and cisplatin in combination (circles). Control treated mice (diamonds) received PBS. Tumors were measured on the days indicated and tumor volume expressed as tumor volume relative to volume at commencement of treatment (FIGS. 1A and 1B). Mice were euthanized when tumors exceeded 15 mm in any one dimension. Survival is expressed as Kaplan-Myer plots (FIGS. 1C and 1D). […] In contrast live virus was detected in only 50% of tumors from combination treated mice but in the liver of 4/6 mice.

Test [3] has as its system proinflammatory cytokines (IL-1I, IL-3, IL-6, IL-12, IL-17, MIP-1I, RANTES). Kind of test: Pro-inflammatory cytokine production in serum. Type of test: in vivo, mouse. Conditions: CP used in combination with RV. The protocol:
FIGS. 3A, 3B, 3C, 3D, 3E, 3F, and 3G are graphs showing pro-inflammatory cytokine response is abrogated by cisplatin. The response of IL-1I (FIG. 3A), IL-3 (FIG. 3B), IL-6 (FIG. 3C), IL-12 (FIG. 3D), IL-17 (FIG. 3E), MIP-1I (FIG. 3F) and RANTES (FIG. 3G) were measured after no treatment (control) or treatment with reovirus, cisplatin or the combination of reovirus and cisplatin.
as §1, with “weekly. Tumors and organs were harvested post-treatment for viral retrieval and histology; serum samples were tested for cytokine production and induction of neutralising anti-reovirus antibody (NARA).” for “weekly.”

On to `N.N.[Cl][Pt][Cl]` [CP, cisplatin], for which the “Mean relative tumor volumes ±SD” value in test [1] (day 12, volume relative to commencement of treatment) was determined as 9.87±2.80. Besides, the Median survival in test [1] (euthanized when tumors exceeded 15 mm) amounted to 8 days. Moreover, the “neutralizing anti-reovirus antibody (NARA) response to RV” value in test [2] is listed as “did not affect”. Further, the “production of proinflammatory cytokines to RV” value in test [3] is “marked attenuation”.

(Values after patent US20130243732A1, “ABROGATING PROINFLAMMATORY CYTOKINE PRODUCTION DURING ONCOLYTIC REOVIRUS THERAPY” ([…] INC., priority 2008, published 2013).)
